Data: PMC11249646, “Small-Molecule Disruptors of the Interaction between Calcium- and Integrin-Binding Protein 1 and Integrin αIIbβ3 as Novel Antiplatelet Agents” (ACS Pharmacology & Translational Science, 2024)
Like-named read-outs stand apart in the source and are kept apart here.

Experiments:
[1] = target: T1, CIB1 and αIIb interaction (CIB1-GST : F-αIIb peptide) (Homo sapiens, UniProt Q99828); assay: FP assay, 1536-well qHTS format (primary and confirmatory screen); type: binding
T1 construct: made in house; host or cells: BL-21 plus RIL cells (E. coli)
T1 sequence (Q99828 1-191): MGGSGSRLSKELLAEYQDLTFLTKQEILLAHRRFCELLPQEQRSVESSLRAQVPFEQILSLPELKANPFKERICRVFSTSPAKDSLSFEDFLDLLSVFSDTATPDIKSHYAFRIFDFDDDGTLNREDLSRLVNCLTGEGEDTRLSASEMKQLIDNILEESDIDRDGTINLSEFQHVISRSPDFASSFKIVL

[2] = target: T2, GST-CIB1 : F-scrambled peptide (Homo sapiens, UniProt Q99828); assay: FP scrambled-peptide counter screen, 1536-well format; type: binding; settings: for IC50: read-out: IC50 [μM] (counterscreen)
T2 construct: made in house; host or cells: BL-21 plus RIL cells (E. coli)
T2 sequence (Q99828 1-191): T1 sequence (Q99828 1-191)

[3] = confirmatory screen, qHTS curve class, negative sign = inhibitory curve
[4] = confirmatory screen, read-out: IC50 [μM] (confirmatory screen)
[5] = qHTS primary screen hits, Table S2, negative = inhibition
[6] = qHTS primary screen hits, Table S2, negative sign = inhibitory curve, several classes where COUNT > 1
[7] = qHTS primary screen hits, Table S2, read-out: IC50
[8] = counterscreen, qHTS curve class, negative sign = inhibitory curve
[9] = Table S3, confirmatory screen, YES/NO call
[10] = Table S3, confirmatory screen, qHTS curve class, a negative sign marks inhibitory curves
[11] = Table S3, confirmatory screen, negative = inhibition
[12] = Table S3, confirmatory screen, read-out: IC50 [μM] (confirmatory screen)
[13] = Table S3, counterscreen, qHTS curve class, a negative sign marks inhibitory curves
[14] = Table S3, counterscreen, negative = inhibition
[15] = qHTS FP screen hits, Table S2, negative = inhibition
[16] = qHTS FP screen hits, Table S2, one class per curve where COUNT > 1, negative sign = inhibitory curve
[17] = qHTS FP screen hits, Table S2, read-out: IC50

## NC(=O)c1ccc(Cc2c(-c3cccc(-c4ccccc4)c3)nn(-c3nc(C(=O)O)cs3)c2O)cc1.O=C(O)C(F)(F)F [NCGC00356638-01]
[1]; confirmatory screen
  Efficacy (%) (confirmatory screen): -125%
[1]; confirmatory screen, YES/NO
  Confirm? (confirmatory screen): YES
[1]; [3]
  Curve Class (confirmatory screen): -2.1
[1]; [4]
  IC50: 70.8 µM
[1]; [5]
  Efficacy (%): -59%
[1]; [6]
  Curve Class: -2.2
[1]; [7]
  IC50: 56.2 µM
[2]; counterscreen
  Efficacy (%) (counterscreen): -60%
  IC50: 44.7 µM
[2]; [8]
  Curve Class (counterscreen): -2.2

## O=C(O)C(F)(F)F.O=C(O)c1ccc(Cc2c(-c3cccc(-c4ccccc4)c3)nn(-c3nc(C(=O)O)cs3)c2O)cc1 [NCGC00356639-01]
[1]; [9]
  Confirm? (confirmatory screen): YES
[1]; [10]
  Curve Class (confirmatory screen): -2.2
[1]; [11]
  Efficacy (%) (confirmatory screen): -79%
[1]; [12]
  IC50: 50.1 µM
[1]; [5]
  Efficacy (%): -39%
[1]; [6]
  Curve Class: -2.2
[1]; [7]
  IC50: 39.8 µM
[2]; [13]
  Curve Class (counterscreen): -2.1
[2]; [14]
  Efficacy (%) (counterscreen): -99%
[2]; Table S3, counterscreen
  IC50: 39.8 µM

## O=C(O)c1csc(-n2nc(-c3ccc(F)c(F)c3)c3cccnc32)n1 [NCGC00356667-01]
[1]; [10]
  Curve Class (confirmatory screen): 4
[1]; [11]
  Efficacy (%) (confirmatory screen): -16%
[1]; [15]
  Efficacy (%): -32%
[1]; [16]
  Curve Class: -1.2
[1]; [17]
  IC50: 3.5 µM
[2]; [13]
  Curve Class (counterscreen): 3
[2]; [14]
  Efficacy (%) (counterscreen): 64%
[2]; Table S3, counterscreen
  IC50: 89.1 µM

## NS(=O)(=O)c1ccc(Cc2cn(-c3nc(C(=O)O)cs3)nc2-c2ccc(F)c(F)c2)cc1.O=C(O)C(F)(F)F [NCGC00356753-01]
[1]; [10]
  Curve Class (confirmatory screen): 4
[1]; [11]
  Efficacy (%) (confirmatory screen): -27%
[1]; [5]
  Efficacy (%): -29%
[1]; [6]
  Curve Class: -2.4
[1]; [7]
  IC50: 31.6 µM
[2]; [14]
  Efficacy (%) (counterscreen): 54%
[2]; Table S3, counterscreen
  IC50: 56.2 µM

## O=C(NC1=CC(=O)c2ccccc2C1=O)c1ccccc1.O=C(O)C(F)(F)F [NCGC00357425-01]
[1]; confirmatory screen
  Efficacy (%) (confirmatory screen): -159%
[1]; confirmatory screen, YES/NO
  Confirm? (confirmatory screen): YES
[1]; [3]
  Curve Class (confirmatory screen): -1.1
[1]; [4]
  IC50: 11.2 µM
[1]; [5]
  Efficacy (%): -92%
[1]; qHTS primary screen hits, Table S2, negative sign = inhibitory curve
  Curve Class: -1.1
[1]; [7]
  IC50: 25.1 µM
[2]; counterscreen
  Efficacy (%) (counterscreen): -113%
  IC50: 11.2 µM
[2]; [8]
  Curve Class (counterscreen): -1.1

## CN1CCN([C@H]2CC[C@H](n3cc(-c4ccc(Oc5ccccc5)cc4)c4c(N)ncnc43)CC2)CC1.Cl [NCGC00370980-02]
[1]; confirmatory screen
  Efficacy (%) (confirmatory screen): -44%
[1]; confirmatory screen, YES/NO
  Confirm? (confirmatory screen): YES
[1]; [3]
  Curve Class (confirmatory screen): -2.2
[1]; [15]
  Efficacy (%): -56%
[1]; [16]
  Curve Class: -2.2
[1]; [17]
  IC50: 50.1 µM
[2]; counterscreen
  Efficacy (%) (counterscreen): -17%
[2]; counterscreen, YES/NO
  Confirm? (counterscreen): YES
[2]; [8]
  Curve Class (counterscreen): 4

## COc1ccccc1Nc1ccc2c(O)cc(S(=O)(=O)O)cc2c1.O=C(O)C(F)(F)F [NCGC00372954-01]
[1]; [9]
  Confirm? (confirmatory screen): YES
[1]; [10]
  Curve Class (confirmatory screen): -2.1
[1]; [11]
  Efficacy (%) (confirmatory screen): -93%
[1]; [12]
  IC50: 25.1 µM
[1]; [15]
  Efficacy (%): -41%
[1]; [16]
  Curve Class: -2.2
[1]; [17]
  IC50: 35.5 µM
[2]; [13]
  Curve Class (counterscreen): -2.4
[2]; [14]
  Efficacy (%) (counterscreen): -89%
[2]; Table S3, counterscreen
  IC50: 22.4 µM

## O=C1C=CC(=O)N1c1ccc(N2CCOCC2)cc1 [NCGC00373122-01]
[1]; confirmatory screen
  CONFIRMATORY SCREEN Efficacy (%): -44%
[1]; confirmatory screen, qHTS curve class
  CONFIRMATORY SCREEN Curve Class: 4
[1]; [5]
  Efficacy (%): -33%
[1]; [6]
  Curve Class: -2.4
[1]; [7]
  IC50: 28.2 µM
[2]; counterscreen
  COUNTERSCREEN Efficacy (%): -8%
[2]; counterscreen, qHTS curve class
  COUNTERSCREEN Curve Class: 4

## C=C1C(=O)OC2C(OC(=O)C=C(C)C)C(C)=C3C(=O)C=C(C)C3C(O)C12 (stereo not drawn) [NCGC00380563-01]
[1]; [9]
  Confirm? (confirmatory screen): YES
[1]; [10]
  Curve Class (confirmatory screen): -1.2
[1]; [11]
  Efficacy (%) (confirmatory screen): -43%
[1]; [12]
  IC50: 2 µM
[1]; [15]
  Efficacy (%): -32%
[1]; [16]
  Curve Class: -1.2
[1]; [17]
  IC50: 2.5 µM
[2]; [13]
  Curve Class (counterscreen): -1.2
[2]; [14]
  Efficacy (%) (counterscreen): -47%
[2]; Table S3, counterscreen
  IC50: 2.2 µM

## CC(=O)c1c(O)cc2c(c1C)C(=O)CC(O)C2 (stereo not drawn) [NCGC00380695-01]
[1]; [10]
  Curve Class (confirmatory screen): 4
[1]; [11]
  Efficacy (%) (confirmatory screen): -25%
[1]; [15]
  Efficacy (%): -53%
[1]; [16]
  Curve Class: -2.2
[1]; [17]
  IC50: 56.2 µM
[2]; [13]
  Curve Class (counterscreen): -3
[2]; [14]
  Efficacy (%) (counterscreen): 0%

## C=C1C(=O)O[C@@H]2[C@H]3C(C)=CC(=O)C3=C(C)[C@@H](OC(=O)/C(C)=C\C)[C@H](O)[C@@H]12 [NCGC00380702-01]
[1]; confirmatory screen
  Efficacy (%) (confirmatory screen): -43%
[1]; confirmatory screen, YES/NO
  Confirm? (confirmatory screen): YES
[1]; [3]
  Curve Class (confirmatory screen): -1.2
[1]; [4]
  IC50: 1.6 µM
[1]; [15]
  Efficacy (%): -35%
[1]; [16]
  Curve Class: -1.2
[1]; [17]
  IC50: 3.5 µM
[2]; counterscreen
  Efficacy (%) (counterscreen): -39%
  IC50: 1.6 µM
[2]; [8]
  Curve Class (counterscreen): -1.2

## CC1(C)C=CN2C(=O)C3=CCCN3C(=O)[C@@H]2C[C@@]12Nc1ccccc1C2=O [NCGC00380729-01]
[1]; confirmatory screen
  Efficacy (%) (confirmatory screen): -68%
[1]; confirmatory screen, YES/NO
  Confirm? (confirmatory screen): YES
[1]; [3]
  Curve Class (confirmatory screen): -2.2
[1]; [15]
  Efficacy (%): -42%
[1]; [16]
  Curve Class: -2.2
[1]; [17]
  IC50: 44.7 µM
[2]; counterscreen
  Efficacy (%) (counterscreen): -55%
  IC50: 39.8 µM
[2]; [8]
  Curve Class (counterscreen): -2.2

## CC(=O)c1c(O)cc2cccc3c2c1CC(C)(O)O3 (stereo not drawn) [NCGC00381142-01]
[1]; [9]
  Confirm? (confirmatory screen): YES
[1]; [10]
  Curve Class (confirmatory screen): -2.2
[1]; [11]
  Efficacy (%) (confirmatory screen): -84%
[1]; [12]
  IC50: 39.8 µM
[1]; [15]
  Efficacy (%): -51%
[1]; [16]
  Curve Class: -2.2
[1]; [17]
  IC50: 50.1 µM
[2]; [13]
  Curve Class (counterscreen): -2.1
[2]; [14]
  Efficacy (%) (counterscreen): -99%
[2]; Table S3, counterscreen
  IC50: 39.8 µM
